Assay results as given in US20240350669A1, “INHIBITION OF KYNURENINE SYNTHESIS AND/OR SIGNALING TO TREAT LEUKEMIA AND MYELODYSPLASIA” (THE TRUSTEES OF COLUMBIA UNIVERSITY IN THE CITY OF NEW YORK, priority 2022, published 2024).

Experiments:
[1] = Systemic toxicity observation in WT mice on epacadostat diet; assay type: in vivo; settings: ad libitum diet 0.8 g/kg
Procedure: (§1) Epacadostat (AdooQ Cat #A15554)-treatment: for the WT C57BL/6J mice, treatment started at the same time than MLL/AF9 cells were transplanted. For the patient-derived AML cells (PDX) transplanted into NSG mice, treatment started 8 weeks after transplant, at the same time than Ara-C and during 3 weeks. Mice were supplied with ad libitum epacadostat-supplemented diet (Research Diets Inc.) at 800 mg/kg (low-dose) or 1.6 g/kg (high-dose). For the PDX transplanted into NSGS mice, treatment started 3 weeks after transplant, by daily gavage at 300 mg/kg (InvivoChem Cat #: V0942, dissolved in 10% DMSO, 40% PEG 300 and 50% NaCl 0.9%) for 2 weeks.

[2] = system: patient-derived AML cells; test: Patient-derived AML xenograft (PDX) in NSGS mice, epacadostat daily gavage; assay type: in vivo, mouse; settings: daily gavage 300 mg/kg
Procedure: as §1
(§2) 4-6 weeks old NSG (CDX model) or NSGS (PDX model) mice were pre-conditioned with sublethal (1.4 Gy) total-body irradiation. 24 h after, 1×10^6 OCI-AML3 or 2×10^5 human BM CD34^+ (healthy) or primary AML patient samples were injected i.v. Engraftment levels were monitored and mice were randomized after BM aspiration 3-4 weeks later and immunophenotyped by the presence of mCD45 (BioLegend Cat #103133, RRID: AB_10899570), hCD45 (BioLegend Cat #368512, RRID: AB_2566372), hCD33 (BioLegend Cat #303404, RRID: AB_314348), hCD34 (BioLegend Cat #343518, RRID: AB_1937203) cell populations. For the low-burden PDX model (kynurenine injections), mice were treated 1 week after transplant.
(§3) Quantification in serum from peripheral blood (mice) or BM plasma (patients) of Kyn and Trp was assessed by ELISA using independent kits (ImmunoSmol) as per manufacturer's instructions. The ratio between Kyn and Trp levels is shown. SAA3 in serum (murine SAA3 ELISA Kit Millipore) and SAA1 in patient BM plasma (Amyloid A1 DuoSet ELISA Kit (R&D) were assessed as per manufacturer's instructions.
(§4) Cell labelling was done by i.p. injection of mice with 50 mg/kg of freshly prepared 5-Ethynyl-2′-deoxyuridine-Edu-(Cayman Chemical Company Cat #20518). After 3-4 h, BM was harvested, and human cells were negatively selected by mouse cell depletion using mouse CD45 magnetic beads (Miltenyi). The human BM cells were then stained CD45 and CD33 to identify the leukemic blast. Cell cycle/proliferation analysis was performed using the Click-iT Plus EdU Flow Cytometry Assay Kit (Invitrogen, Cat #C10420) following manufacturers' instructions. Fixable viability dye (Biolegend) was used to discriminate the death population. Single color controls were used to set compensations and fluorescence minus one control were used to set gates. Analysis was performed with FlowJo software.

IDO1 [3] = test: Epacadostat in vitro: kynurenine secretion and cell cycle progression; assay type: cell-based
IDO1 [4] = test: Circulating Kyn and Trp levels (ELISA) in WT mice on epacadostat diet; assay type: in vivo, mouse
Procedure: as §1, §3

MLL/AF9 AML cells = test: MLL/AF9 syngeneic leukemia model in non-irradiated WT mice; assay type: in vivo, mouse
Procedure: PTH bone-anabolic treatment: mice were injected intraperitoneally (i.p.) with PTH (Bachem) at 80 μg/kg/day in PBS. Injections started 1 week before MLL/AF9 injection and continued along 2-3 more weeks until mice were harvest.
SB224289-SB9-(TOCRIS Cat #1221) treatment: mice were injected intraperitoneally (i.p.) daily with SB9 (5 mg/kg in 0.9% NaCl) 1 week after leukemia injection and for the duration of the experiment. Assuming a 20 g body weight (BW) and a 2 ml total blood volume per mouse—as well as an even distribution of the drug-systemic concentration of SB9 should be approximately 50 μg/ml. Based on the MW of SB9 (557.09), the final concentration—at equal distribution—in blood should be 8.97521e-05 M (≈90 μM).
as §1
All leukemia models were introduced by intravenous (i.v.) injection and transplanted into non-irradiated secondary recipient experimental animals. BALB/c mice were used for the WEHI-3B leukemia model (0.5×10^6/cells/mouse) and C57BL/6J mice for MLL/AF9-dsRed (0.2×10^6/cells/mouse). Leukemia progression was assessed by fluorescence (MLL/AF9 dsRed) using the IVIS-Spectrum Optical Imaging System (Caliper, Perkin Elmer). Mice were shaved to reduce light attenuation.

[5] = system: patient-derived AML cells; test: Patient-derived AML xenograft in NSG mice, epacadostat chow and/or Ara-C; assay type: in vivo, mouse
Procedure: as §1
For the combination therapy (Epacadostat+chemotherapy) performed at the University of Pennsylvania, patient-derived AML cells were transplanted as previously reported (48). Briefly 6 weeks old NSG males were sublethally treated with busulfan (30 mg/kg) 24 h before transplant and 5×10^6 patient-derived AML cells were injected i.v. Engraftment was assessed, and mice were randomized at 7.5 weeks by BM aspirate as previously described. Randomized mice were treated with vehicle, cytosine arabinoside (Ara-C, 60 mg/kg/day×5 days i.p.), epacadostat chow (1.6 g/kg ad libitum) or both Ara-C and epacadostat chow for 3 weeks.

[6] = system: human AML and MDS cell lines; test: mRNA levels in human AML and MDS cell lines exposed to SAA1; assay type: cell-based
Procedure: (§5) Treatments with recombinant proteins: human IL-1α, IL-1β, IL-6, IL-33, IL-34, CXCL1, CXCL3, CXCL5, CXCL8, CCL2, CCL20, Apo-SAA1 (all from Peprotech) and recombinant mouse SAA3 (Cusabio) were performed by o/n treatment with 50 ng/ml of the corresponding protein. SAA1 treatment of human AML cell lines was done with 1 μg/ml for 24, 48 or 72 h. Treatment of primary human MDS or AML lineage-depleted BM-MNCs was done with 5 μg/ml for 24 h. Treatment of PDX isolated human total BM cells was done with 1 μg/ml for 24 h.
(§6) RNA isolation, cDNA preparation and real-time PCR analyses were carried out following standard protocols. Total RNA from cortical bone (clean, flushed femurs, were centrifugated 20 seconds at 10.000 g's to remove any remaining BM) was extracted using TRIzol (Invitrogen) followed by RNA clean-up using PureLink RNA Mini Kit (Ambion, Invitrogen). mRNA was reversed transcribed using random hexamers RNA-to-cDNA kit (Takara). Specific forward and reverse primers were used in conjunction with PowerUp SYBR Green Master Mix (Applied Biosystems) for quantitative PCR. Expression levels were analyzed using the 2^−ΔΔCt method and were normalized for the expression of the housekeeping gene Hprt unless otherwise stated.

[7] = system: human BM cells from PDX healthy or PDX AML mice; test: Ex vivo total human BM cells isolated from PDX mice exposed to SAA1; assay type: cell-based; settings: SAA1 1 μg/ml, 24 h
Procedure: as §5
(§7) Cell proliferation was performed by using Cell Counting Kit 8 (WST-8, Abcam) as per manufacturer's instructions. Briefly, 0.03×10^6 cells were seeded on tissue-culture clear bottom microplates (Corning) in their corresponding media (100 μl). When indicated, cells were treated with the indicated compounds and for the indicated time points. 10 μl/well of WST-8 solution was added and incubated for 2 h at 37° C. before measuring absorbance at 460 nm. For each experiment, the absorbance of the blank wells (growth media and vehicle/treatment) was subtracted from the values for those wells with cells.
Ex vivo xenografts (healthy CD34^+ versus patient-derived AML): total BM from NSGS mice was depleted of mouse cells with mouse CD45 magnetic beads (Miltenyi Biotec Cat #130-052-301, RRID: AB_2877061) and negatively selected human cells used.

OCI-AML3 cells = test: IDO1 mRNA in OCI-AML3 cells exposed to recombinant osteoblast-secreted molecules; assay type: cell-based, human; settings: o/n treatment, 50 ng/ml
Procedure: as §5, §6

human AML cell lines = test: WST-8 proliferation of human AML cell lines exposed to SAA1; assay type: cell-based; settings: SAA1 1 μg/ml, 24-72 h, versus vehicle
Procedure: as §5, §7
In vitro: the indicated cell lines were incubated in reduced-serum media and exposed to SAA1 (1 μg/ml) for the 24-72 h as indicated.

[8] = system: leukemic blasts (hCD45+CD33+); test: In vivo SAA1 treatment of PDX mice, Edu cell cycle analysis of leukemic blasts; design: species or system mouse
Procedure: SAA1 (Peprotech Cat #300-53) treatment: for short-term treatment (2 days), mice were injected intra venous (i.v.) 72 h and 48 h before harvesting. For long-term treatment (8-days), mice received daily i.v. injections. In order to get the same SAA1 concentration in blood that the one used in vitro, we used a dosage of 100 μg/kg of SAA1, diluted in 0.9% NaCl. Assuming a 20 g body weight, 2 ml total blood volume, and an even distribution in the mouse, systemic concentration of SAA1 should be approximately 1 μg/ml.
as §2, §4

AML and MDS BM MNCs = test: Ex vivo lineage-depleted AML and MDS patient BM MNCs exposed to SAA1; assay type: cell-based, human; settings: SAA1 5 μg/ml, 24 h
Procedure: as §5, §7
Ex vivo primary AML and MDS patient's samples: MNCs from fresh BM patients' aspirates were isolated as previously described and depleted from mature hematopoietic cells (lineage Cell Depletion Kit, Miltenyi Biotec Cat #130-092-211). […]

WEHI-3B cells = test: Ido1 mRNA in WEHI-3B cells exposed to recombinant SAA; assay type: cell-based, mouse; settings: o/n treatment
Procedure: as §5, §6

WEHI-3B = test: WST-8 proliferation of mouse WEHI-3B AML cells exposed to SAA3; assay type: cell-based; settings: SAA3 1 μg/ml, 24-72 h, versus vehicle
[9] = day 22 after initiating therapy, Ara-C 60 mg/kg/day x 5 days, epacadostat chow 1.6 g/kg 3 weeks
[10] = SAA1 i.v., 2- and 8-day treatments

## NS(=O)(=O)NCCNc1nonc1C(=NO)Nc1ccc(F)c(Br)c1 [epacadostat]
[1]
  systemic toxicity: did not show any obvious systemic toxicity
[2]
  G0-G1 and G2-M populations of leukemic blasts: remained unchanged
  leukemic blasts apoptosis: increased leukemic blasts apoptosis
[2]; 12 days
  reduction in Kyn/Trp levels in blood: ~20%
[2]; 12 days, versus vehicle
  reduction in AML BM burden: ~20%
[2]; in vivo cell cycle
  proliferation of leukemic blasts (hCD45+CD33+): less proliferative
IDO1 [3]
  cell cycle progression: impaired
  kynurenine secretion: abrogated
IDO1 [4]; MLL/AF9-injected mice, diet 1.6 g/kg
  reduction in serum Kyn levels: 35%
IDO1 [4]; MLL/AF9 leukemic mice, diet 0.8 g/kg
  effect on the 1.5-fold-increase in systemic Kyn/Trp levels of MLL/AF9 leukemic mice: did not reduce
IDO1 [4]; no leukemia, ad libitum diet 0.8 g/kg
  reduction in basal circulating Kyn/Trp levels: 54%
IDO1 [4]; wild type mice, dose not stated
  reduction in circulating kynurenine and tryptophan levels: 41%
MLL/AF9 AML cells; AML-injected mice, dose not stated
  survival: increases in survival
MLL/AF9 AML cells; epacadostat diet 0.8 g/kg
  leukemia progression: tendency towards a slower leukemia progression
  survival: slight-yet significant-increase in survival
MLL/AF9 AML cells; epacadostat diet 1.6 g/kg
  AML burden: significant delay in AML burden
MLL/AF9 AML cells; epacadostat diet 1.6 g/kg, compared to the lower dose
  survival: significantly prolonged survival
[5]; AML patient-derived xenograft models, summary statement
  leukemia burden in both the bone marrow and spleen: significantly decreases leukemia burden
[5]; [9]
  leukemic burden in BM: decreased leukemic burden
  leukemic burden in spleen: more pronounced effect in the spleen

B1: SAA1: recombinant human acute-phase protein serum amyloid A1 (Peprotech) (protein, UniProt P0DJI8 19-122, looked up)
Serum amyloid A-1 protein: RSFFSFLGEAFDGARDMWRAYSDMREANYIGSDKYFHARGNYDAAKRGPGGAWAAEVITDARENIQRFFGHGAEDSLADQAANEWGRSGKDPNHFRPAGLPEKY
[6]; SAA1
  IDO1 expression across human AML cell lines and MDS-L: observed across several human AML cell lines as well as the MDS-L cell line
[6]; SAA1 1 μg/ml o/n
  expression of AHR target genes: upregulated most of the main AHR targets genes
[7]
  proliferation of human cells from CD34+ healthy-injected mice: unresponsive
[7]; versus vehicle
  proliferation of patient-derived cells from AML-injected mice: high proliferative activity
[7]; PDX-AML versus CD34+ healthy-injected mice
  CYP1A1 and CYP1A2 gene expression: only upregulated in response to SAA1 in the human BM cells isolated from the PDX-AML
[7]; PDX-AML versus PDX healthy cells
  IDO1 expression: only upregulated in response to SAA1 in the PDX-AML isolated human cells
OCI-AML3 cells
  IDO1 expression in OCI-AML3 leukemic cells: able to upregulate IDO1 expression
Human AML cell lines
  proliferation of AML cell lines: increased proliferation
[8]; 8-day treatment
  % of Sub-G1 apoptotic cells: reduced
[8]; SAA1 100 μg/kg i.v., 2- and 8-day treatments
  proliferative rate of leukemic blasts (Edu+ cells, S-phase): maintained and prominent increase
[8]; [10]
  G0-G1 cells: decrease
  G2-M phase: unvarying
[8]; completion of the 8-day treatment
  increase in AML burden in the BM: 1.5 fold
AML and MDS BM MNCs
  IDO1 mRNA levels in patient-derived BM MNCs: increased
  proliferation of lineage-depleted AML and MDS BM MNCs: promoted proliferation
WEHI-3B cells
  Ido1 expression in WEHI-3B cells: able to upregulate Ido1 expression

B2: SAA3: recombinant mouse SAA3 (Cusabio), murine orthologue of SAA1 (protein, UniProt P04918 19-122, looked up)
Serum amyloid A-3 protein: QRWVQFMKEAGQGSRDMWRAYSDMKKANWKNSDKYFHARGNYDAARRGPGGAWAAKVISDAREAVQKFTGHGAEDSRADQFANEWGRSGKDPNHFRPAGLPKRY
WEHI-3B
  proliferation of AML cell lines: increased proliferation
WEHI-3B cells
  Ido1 expression in WEHI-3B cells: upregulated Ido1 expression
